In patent US20240199542A1, “SUBSTITUTED PYRROLIDIN-2-ONES, SALTS THEREOF AND THEIR USE AS HERBICIDALLY ACTIVE SUBSTANCES” (Bayer Aktiengesellschaft, priority 2021, published 2024):

Key:
Type in all cases: in vivo
[1] = tested on: Alopecurus myosuroides (ALOMY); assay: Herbicidal post-emergence action; conditions: 1280 g/ha, assessed after ca. 3 weeks
Description: (§1) Seeds of mono- and dicotyledonous weed plants and crop plants were sown, in plastic or organic planting pots, in sandy loam, covered with soil and grown in a greenhouse under controlled growth conditions. 2 to 3 weeks after sowing, the test plants were sprayed in the single-leaf stage. The compounds according to the invention, formulated in form of wettable powders (WP) or as emulsifiable concentrates (EC), were sprayed onto the green plant parts as aqueous suspension or emulsion, with the addition of 0.5% of an additive, at an application rate of 600 1 of water/ha (converted). The test plants were placed in the greenhouse for ca. 3 weeks under optimum growth conditions, and then the effect of the preparations was assessed visually in comparison with untreated controls (herbicidal effect in percent (%): 100% effect=plants have died off, 0% effect=as control plants).
(§2) Tables B1 to B16 below show the effects of selected compounds of the general formula (I) according to table 1 on various harmful plants and an application rate corresponding to 1280 g/ha or 320 g/ha obtained by the experimental procedure mentioned above.

[2] = tested on: Lolium multiflorum (LOLMU); assay: Herbicidal post-emergence action; conditions: 1280 g/ha, assessed after ca. 3 weeks
Description: as §1, §2

[3] = tested on: Setaria viridis (SETVI); assay: Herbicidal post-emergence action; conditions: 1280 g/ha, assessed after ca. 3 weeks
Description: as §1, §2

[4] = tested on: Echinochloa crus-galli (ECHCG); assay: Herbicidal post-emergence action; conditions: 1280 g/ha, assessed after ca. 3 weeks
Description: as §1, §2

[5] = tested on: Alopecurus myosuroides (ALOMY); assay: Herbicidal pre-emergence action; conditions: 1280 g/ha, graded after ca. 3 weeks
Description: (§3) Seeds of mono- and dicotyledonous weed plants and crop plants were sown, in plastic or organic planting pots, in sandy loam and covered with soil. The compounds according to the invention, formulated in the form of wettable powders (WP) or as emulsifiable concentrates (EC), were applied to the surface of the covering soil as aqueous suspension or emulsion, with the addition of 0.5% of an additive, at an application rate of 600 1 of water/ha (converted).
(§4) Following treatment, the pots were placed in a greenhouse and kept under optimum growth conditions for the test plants. The visual grading of the damage to the test plants was carried out after ca. 3 weeks in comparison to untreated controls (herbicidal effect in percent (%): 100% effect=plants have died off, 0% effect=as control plants).
(§5) Tables A1 to A16, below, show the effects of selected compounds of the general formula (I) according to table 1 on various harmful plants and an application rate corresponding to 1280 g/ha or lower obtained by the experimental procedure mentioned above.

[6] = tested on: Avena fatua (AVEFA); assay: Herbicidal pre-emergence action; conditions: 1280 g/ha, graded after ca. 3 weeks
Description: as §3, §4, §5

[7] = tested on: Echinochloa crus-galli (ECHCG); assay: Herbicidal pre-emergence action; conditions: 1280 g/ha, graded after ca. 3 weeks
Description: as §3, §4, §5

[8] = tested on: Polygonum convolvulus (POLCO); assay: Herbicidal pre-emergence action; conditions: 1280 g/ha, graded after ca. 3 weeks
Description: as §3, §4, §5

[9] = tested on: Lolium multiflorum (LOLMU); assay: Herbicidal pre-emergence action; conditions: 1280 g/ha, graded after ca. 3 weeks
Description: as §3, §4, §5

[10] = tested on: Avena fatua (AVEFA); assay: Herbicidal post-emergence action; conditions: 1280 g/ha, assessed after ca. 3 weeks
Description: as §1, §2

[11] = tested on: Setaria viridis (SETVI); assay: Herbicidal pre-emergence action; conditions: 1280 g/ha, graded after ca. 3 weeks
Description: as §3, §4, §5

## O=C(CC1CCC(=O)N1Cc1cccc(F)c1F)OCCSc1ccc(Cl)cc1 (racemic) [Example I-038]
[1]
  Post-emergence activity against ALOMY: 80%
[2]
  Post-emergence activity against LOLMU: 80%
[3]
  Post-emergence activity against SETVI: 80%
[4]
  Post-emergence activity against ECHCG: 90%

## O=C(CC1CCC(=O)N1Cc1cccc(F)c1F)NC(Cc1ccccc1)C(=O)O (mixture of isomers) [Example I-044]
[5]
  Pre-emergence activity against ALOMY: 80%
[6]
  Pre-emergence activity against AVEFA: 90%
[7]
  Pre-emergence activity against ECHCG: 80%
[8]
  Pre-emergence activity against POLCO: 90%
[3]
  Post-emergence activity against SETVI: 80%
[4]
  Post-emergence activity against ECHCG: 90%

## CN(C)NC(=O)CC1CCC(=O)N1Cc1cccc(F)c1F (racemic) [Example I-058]
[5]
  Pre-emergence activity against ALOMY: 90%
[6]
  Pre-emergence activity against AVEFA: 100%
[9]
  Pre-emergence activity against LOLMU: 80%
[1]
  Post-emergence activity against ALOMY: 80%
[10]
  Post-emergence activity against AVEFA: 80%
[4]
  Post-emergence activity against ECHCG: 80%

## COC(=O)CCNC(=O)CC1CCC(=O)N1Cc1cccc(F)c1F (racemic) [Example I-084]
[5]
  Pre-emergence activity against ALOMY: 80%

## CC(C)OC(=O)CC1CCC(=O)N1Cc1cccc(F)c1F (racemic) [Example I-025]
[5]
  Pre-emergence activity against ALOMY: 90%
[6]
  Pre-emergence activity against AVEFA: 100%
[9]
  Pre-emergence activity against LOLMU: 90%
[11]
  Pre-emergence activity against SETVI: 80%
[7]
  Pre-emergence activity against ECHCG: 90%
[8]
  Pre-emergence activity against POLCO: 80%
[1]
  Post-emergence activity against ALOMY: 80%
[10]
  Post-emergence activity against AVEFA: 80%
[2]
  Post-emergence activity against LOLMU: 80%
[4]
  Post-emergence activity against ECHCG: 90%

## CN(C(=O)CC1CCC(=O)N1Cc1cccc(F)c1F)c1ccccc1 (racemic) [Example I-100]
[5]
  Pre-emergence activity against ALOMY: 90%

## O=C(CC1CCC(=O)N1Cc1cccc(F)c1F)NCc1cccc2ncccc12 (racemic) [Example I-079]
[10]
  Post-emergence activity against AVEFA: 90%

## CC(C)S(=O)(=O)NC(=O)CC1CCC(=O)N1Cc1cccc(F)c1F (racemic) [Example I-076]
[6]
  Pre-emergence activity against AVEFA: 80%
[10]
  Post-emergence activity against AVEFA: 80%

## CCNC(=O)CC1CCC(=O)N1Cc1cccc(F)c1F (racemic) [Example I-098]
[10]
  Post-emergence activity against AVEFA: 80%

## Cc1ccc(CN2C(=O)CCC2CC(=O)O)c(F)c1F (racemic) [Example I-035]
[6]
  Pre-emergence activity against AVEFA: 100%
[7]
  Pre-emergence activity against ECHCG: 80%
[1]
  Post-emergence activity against ALOMY: 80%
[10]
  Post-emergence activity against AVEFA: 90%
[2]
  Post-emergence activity against LOLMU: 80%
[3]
  Post-emergence activity against SETVI: 100%
[4]
  Post-emergence activity against ECHCG: 90%

## CS(=O)(=O)NC(=O)CC1CCC(=O)N1Cc1cccc(Cl)c1F (racemic) [Example I-070]
[10]
  Post-emergence activity against AVEFA: 80%
[4]
  Post-emergence activity against ECHCG: 80%

## CC(C)CC(NC(=O)CC1CCC(=O)N1Cc1cccc(F)c1F)C(=O)O (mixture of isomers) [Example I-045]
[6]
  Pre-emergence activity against AVEFA: 90%
[7]
  Pre-emergence activity against ECHCG: 80%
[1]
  Post-emergence activity against ALOMY: 80%
[2]
  Post-emergence activity against LOLMU: 80%
[3]
  Post-emergence activity against SETVI: 80%

## O=C(CC1CCC(=O)N1Cc1cccc(F)c1F)OCC[S+]([O-])c1ccc(Cl)cc1 (racemic) [Example I-029]
[5]
  Pre-emergence activity against ALOMY: 80%
[6]
  Pre-emergence activity against AVEFA: 100%
[9]
  Pre-emergence activity against LOLMU: 80%
[11]
  Pre-emergence activity against SETVI: 80%
[7]
  Pre-emergence activity against ECHCG: 90%
[1]
  Post-emergence activity against ALOMY: 80%
[10]
  Post-emergence activity against AVEFA: 90%
[2]
  Post-emergence activity against LOLMU: 80%
[4]
  Post-emergence activity against ECHCG: 90%

## O=C(CC1CCC(=O)N1Cc1cccc(F)c1F)NS(=O)(=O)C(F)(F)F (racemic) [Example I-052]
[6]
  Pre-emergence activity against AVEFA: 90%
[2]
  Post-emergence activity against LOLMU: 80%
[4]
  Post-emergence activity against ECHCG: 80%

## O=C(CC1CCC(=O)N1Cc1cccc(F)c1F)NS(=O)(=O)C(F)F (racemic) [Example I-074]
[4]
  Post-emergence activity against ECHCG: 80%

## CSCCOC(=O)CC1CCC(=O)N1Cc1cccc(F)c1F (racemic) [Example I-010]
[5]
  Pre-emergence activity against ALOMY: 80%
[6]
  Pre-emergence activity against AVEFA: 100%
[1]
  Post-emergence activity against ALOMY: 80%
[10]
  Post-emergence activity against AVEFA: 90%
[2]
  Post-emergence activity against LOLMU: 90%
[3]
  Post-emergence activity against SETVI: 90%
[4]
  Post-emergence activity against ECHCG: 100%
